The target of this assay is T1, human TRPV3 (Homo sapiens, UniProt Q8NET8).
T1 construct: expressed in transfected cells; host or cells: HEK293
T1 sequence (Q8NET8 1-790): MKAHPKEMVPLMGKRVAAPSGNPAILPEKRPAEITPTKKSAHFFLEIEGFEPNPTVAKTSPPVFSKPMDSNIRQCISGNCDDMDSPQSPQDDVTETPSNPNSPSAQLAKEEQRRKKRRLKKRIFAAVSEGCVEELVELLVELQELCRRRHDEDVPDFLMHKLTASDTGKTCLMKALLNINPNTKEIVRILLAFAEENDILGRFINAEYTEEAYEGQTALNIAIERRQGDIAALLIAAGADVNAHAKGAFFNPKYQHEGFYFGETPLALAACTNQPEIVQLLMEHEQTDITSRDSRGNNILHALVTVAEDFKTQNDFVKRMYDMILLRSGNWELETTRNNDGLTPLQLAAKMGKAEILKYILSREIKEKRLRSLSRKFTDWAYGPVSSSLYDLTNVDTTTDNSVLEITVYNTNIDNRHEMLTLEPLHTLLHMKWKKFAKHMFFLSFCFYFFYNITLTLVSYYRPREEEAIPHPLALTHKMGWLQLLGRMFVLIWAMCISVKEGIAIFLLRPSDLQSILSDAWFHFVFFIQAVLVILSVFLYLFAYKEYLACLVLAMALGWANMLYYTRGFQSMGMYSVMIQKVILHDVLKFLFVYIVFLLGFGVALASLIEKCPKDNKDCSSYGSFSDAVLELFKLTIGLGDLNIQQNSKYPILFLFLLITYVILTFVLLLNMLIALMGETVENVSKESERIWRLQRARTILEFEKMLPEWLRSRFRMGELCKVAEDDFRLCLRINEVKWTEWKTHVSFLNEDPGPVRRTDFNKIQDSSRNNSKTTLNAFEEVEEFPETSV
Put plainly: Calcium flux assay (FLIPR TETRA), recombinant HEK293 cells expressing TRPV3, 2-APB response. Type of assay: cell-based. Particulars: 2-APB at its EC80. The protocol: (i) In Vitro Methods-Calcium Flux Assays:
Experiments were conducted using the FLIPR TETRA®. On the day prior to the experiment, recombinant HEK293 cells that stably express human and mouse TRPV3 were removed from tissue culture flasks and plated in growth medium at 20,000 cells/well into black-walled clear-bottom 384-well BIOCOAT™ poly-D-lysine assay plates (BD Biosciences, Bedford, Mass.) using a MULTIDROP® dispenser (ThermoScientific, Waltham, Mass.). On the day of the experiment, growth medium was removed, and the no-wash FLIPR® Calcium-4 dye (λEX=470-495 nm, λEM=515-575 nm; Molecular Devices, Sunnyvale, Calif.) was added to each well using the MULTIDROP® dispenser. Cells were incubated for 90-120 minutes in the dark. The compounds were dissolved in DMSO to prepare a 10 mM stock solution. The intensity of the fluorescence was captured and digitally transferred to an interfaced PC. The peak increase in fluorescence over baseline, measured in relative fluorescence units, was calculated and expressed as the percentage of the maximal 2-APB (2-aminoethoxyldiphenyl borate) response (in the absence of compound). The concentration of 2-APB corresponds to its EC80.
Regarding `COc1ncnc(OC)c1C(=O)Nc1nc(C(F)(F)F)c(CCO)s1` [Example 22, N-[5-(2-hydroxyethyl)-4-(trifluoromethyl)-1,3-thiazol-2-yl]-4,6-dimethoxypyrimidine-5-carboxamide], the IC50 was over 1000 nM. In the case of `COc1ncnc(OC)c1C(=O)Nc1nc(C(F)(F)F)c(-c2ccc(N3CCOCC3)nc2)s1` [Example 23, 4,6-dimethoxy-N-{5-[6-(morpholin-4-yl)pyridin-3-yl]-4-(trifluoromethyl)-1,3-thiazol-2-yl}pyrimidine-5-carboxamide] it was 100 to 500 nM; in that of `COc1ncnc(OC)c1C(=O)Nc1nc(C(F)(F)F)c(-c2ccncc2C#N)s1` [Example 24, N-[5-(3-cyanopyridin-4-yl)-4-(trifluoromethyl)-1,3-thiazol-2-yl]-4,6-dimethoxypyrimidine-5-carboxamide], 100 to 500 nM; in that of `COc1ncnc(OC)c1C(=O)Nc1nc(C(F)(F)F)c(-c2cccc(F)c2C#N)s1` [Example 25, N-[5-(2-cyano-3-fluorophenyl)-4-(trifluoromethyl)-1,3-thiazol-2-yl]-4,6-dimethoxypyrimidine-5-carboxamide], under 50 nM. In the case of `CCc1sc(NC(=O)c2c(OC)ncnc2OC)nc1-c1ccccc1` [Example 26, N-(5-ethyl-4-phenyl-1,3-thiazol-2-yl)-4,6-dimethoxypyrimidine-5-carboxamide], the IC50 was 50 to 100 nM.

On to `COc1ncnc(OC)c1C(=O)Nc1nc(C(F)(F)F)c(-c2cnccn2)s1` [Example 28, 4,6-dimethoxy-N-[5-(pyrazin-2-yl)-4-(trifluoromethyl)-1,3-thiazol-2-yl]pyrimidine-5-carboxamide], for which the half-inhibitory concentration (IC50) was 500 to 1000 nM.

On to `COc1ncnc(OC)c1C(=O)Nc1nc(C(F)(F)F)c(-c2cnc(N3CCOCC3)cn2)s1` [Example 29, 4,6-dimethoxy-N-{5-[5-(morpholin-4-yl)pyrazin-2-yl]-4-(trifluoromethyl)-1,3-thiazol-2-yl}pyrimidine-5-carboxamide], for which the IC50 lay in the range of 500 to 1000 nM. As for `COc1ncnc(OC)c1C(=O)Nc1nc(C(F)(F)F)c(-c2cccc(C(F)(F)F)n2)s1` [Example 30, 4,6-dimethoxy-N-{4-(trifluoromethyl)-5-[6-(trifluoromethyl)pyridin-2-yl]-1,3-thiazol-2-yl}pyrimidine-5-carboxamide], the concentration for half-maximal inhibition (IC50) was under 50 nM. For `COc1ncnc(OC)c1C(=O)Nc1nc(C(F)(F)F)c(N2CCOCC2)s1` [Example 32, 4,6-dimethoxy-N-[5-(morpholin-4-yl)-4-(trifluoromethyl)-1,3-thiazol-2-yl]pyrimidine-5-carboxamide], the half-inhibitory concentration (IC50) was in the range of 100 to 500 nM. For `CCCc1sc(NC(=O)c2c(OC)ncnc2OC)nc1C(F)(F)F` [Example 34, 4,6-dimethoxy-N-[5-propyl-4-(trifluoromethyl)-1,3-thiazol-2-yl]pyrimidine-5-carboxamide], the IC50 is under 50 nM. Regarding `COc1ncnc(OC)c1C(=O)Nc1nc(C(F)(F)F)c(C2COC(C)(C)O2)s1` (stereo not shown) [Example 35, N-[5-(2,2-dimethyl-1,3-dioxolan-4-yl)-4-(trifluoromethyl)-1,3-thiazol-2-yl]-4,6-dimethoxypyrimidine-5-carboxamide], the half-maximal inhibitory concentration (IC50) lay within 100 to 500 nM. For the compound `COc1ncnc(OC)c1C(=O)Nc1nc(C(F)(F)F)c(-c2cnc(N3CCOCC3)nc2)s1` [Example 36, 4,6-dimethoxy-N-{5-[2-(morpholin-4-yl)pyrimidin-5-yl]-4-(trifluoromethyl)-1,3-thiazol-2-yl}pyrimidine-5-carboxamide], the IC50 lay in the range of 50 to 100 nM. As to `COc1ncnc(OC)c1C(=O)Nc1nc(C(F)(F)F)c(C2CC2)s1` [Example 37, N-[5-cyclopropyl-4-(trifluoromethyl)-1,3-thiazol-2-yl]-4,6-dimethoxypyrimidine-5-carboxamide], the half-maximal inhibitory concentration (IC50) is under 50 nM. On to `COc1ncnc(OC)c1C(=O)Nc1nc(C(F)(F)F)c(C2=CCOCC2)s1` [Example 38, N-[5-(3,6-dihydro-2H-pyran-4-yl)-4-(trifluoromethyl)-1,3-thiazol-2-yl]-4,6-dimethoxypyrimidine-5-carboxamide], for which the IC50 is under 50 nM.

`COc1ncnc(OC)c1C(=O)Nc1nc(C(F)(F)F)c(C2CCOCC2)s1` [Example 39, 4,6-dimethoxy-N-[5-(tetrahydro-2H-pyran-4-yl)-4-(trifluoromethyl)-1,3-thiazol-2-yl]pyrimidine-5-carboxamide]: the IC50 lay within 50 to 100 nM.

`COc1cc(C#N)ccc1-c1sc(NC(=O)c2c(OC)ncnc2OC)nc1C(F)(F)F` [Example 43, N-[5-(4-cyano-2-methoxyphenyl)-4-(trifluoromethyl)-1,3-thiazol-2-yl]-4,6-dimethoxypyrimidine-5-carboxamide]: the half-inhibitory concentration (IC50) is under 50 nM.

Regarding `COc1ncnc(OC)c1C(=O)Nc1nc(C(F)(F)F)c(-c2c[nH]c3cc(C#N)ccc23)s1` [Example 44, N-[5-(6-cyano-1H-indol-3-yl)-4-(trifluoromethyl)-1,3-thiazol-2-yl]-4,6-dimethoxypyrimidine-5-carboxamide], the half-maximal inhibitory concentration (IC50) was in the range of 100 to 500 nM. As for `COc1ncnc(OC)c1C(=O)Nc1nc(C(F)(F)F)c(-c2ccccn2)s1` [Example 45, 4,6-dimethoxy-N-[5-(pyridin-2-yl)-4-(trifluoromethyl)-1,3-thiazol-2-yl]pyrimidine-5-carboxamide], the figure is 100 to 500 nM; as for `COc1ncnc(OC)c1C(=O)Nc1nc(C(F)(F)F)c(-c2ccc(Cl)cn2)s1` [Example 46, N-[5-(5-chloropyridin-2-yl)-4-(trifluoromethyl)-1,3-thiazol-2-yl]-4,6-dimethoxypyrimidine-5-carboxamide], under 50 nM; as for `COc1ncnc(OC)c1C(=O)Nc1nc(C(F)(F)F)c(C=O)s1` [Example 47, N-[5-formyl-4-(trifluoromethyl)-1,3-thiazol-2-yl]-4,6-dimethoxypyrimidine-5-carboxamide], over 1000 nM. For the compound `COc1ncnc(OC)c1C(=O)Nc1nc(C(F)(F)F)c(CN2CCCC2)s1` [Example 49, 4,6-dimethoxy-N-[5-(pyrrolidin-1-ylmethyl)-4-(trifluoromethyl)-1,3-thiazol-2-yl]pyrimidine-5-carboxamide], the IC50 fell in the range of 500 to 1000 nM.

Turning to `COc1ncnc(OC)c1C(=O)Nc1nc(C(F)(F)F)c(CN2CCOCC2)s1` [Example 50, 4,6-dimethoxy-N-[5-(morpholin-4-ylmethyl)-4-(trifluoromethyl)-1,3-thiazol-2-yl]pyrimidine-5-carboxamide], the IC50 is over 1000 nM.

With `COc1ncnc(OC)c1C(=O)Nc1nc(C(F)(F)F)c(CNC2CCCC2)s1` [Example 51, N-{5-[(cyclopentylamino)methyl]-4-(trifluoromethyl)-1,3-thiazol-2-yl}-4,6-dimethoxypyrimidine-5-carboxamide], the IC50 lay in the range of 100 to 500 nM. For `COc1ncnc(OC)c1C(=O)Nc1nc(C(F)(F)F)c(CN(C)CC(C)C)s1` [Example 54, 4,6-dimethoxy-N-[5-{[methyl(2-methylpropyl)amino]methyl}-4-(trifluoromethyl)-1,3-thiazol-2-yl]pyrimidine-5-carboxamide], the IC50 was under 50 nM.

In the case of `COc1ncnc(OC)c1C(=O)Nc1nc(C(F)(F)F)c(CN(C)C(C)(C)C)s1` [Example 55, N-[5-{[tert-butyl(methyl)amino]methyl}-4-(trifluoromethyl)-1,3-thiazol-2-yl]-4,6-dimethoxypyrimidine-5-carboxamide], the concentration for half-maximal inhibition (IC50) is 100 to 500 nM. `COc1ncnc(OC)c1C(=O)Nc1nc(C(F)(F)F)c(CNC(C)(C)C)s1` [Example 56, N-{5-[(tert-butylamino)methyl]-4-(trifluoromethyl)-1,3-thiazol-2-yl}-4,6-dimethoxypyrimidine-5-carboxamide]: the half-inhibitory concentration (IC50) was over 1000 nM. As to `COc1ncnc(OC)c1C(=O)Nc1nc(C(F)(F)F)c(CN2CC[C@H](F)C2)s1` [Example 57, N-[5-{[(3 S)-3-fluoropyrrolidin-1-yl]methyl}-4-(trifluoromethyl)-1,3-thiazol-2-yl]-4,6-dimethoxypyrimidine-5-carboxamide], the IC50 lay in the range of 100 to 500 nM.

As for `COc1ncnc(OC)c1C(=O)Nc1nc(C(F)(F)F)c(CN2CC[C@H](OC)C2)s1` [Example 59, 4,6-dimethoxy-N-[5-{[(3S)-3-methoxypyrrolidin-1-yl]methyl}-4-(trifluoromethyl)-1,3-thiazol-2-yl]pyrimidine-5-carboxamide], the IC50 was in the range of 500 to 1000 nM.

In general, IC50 refers to the midpoint of a concentration-inhibition curve.

Source of the values: patent US20180243298A1, “TRPV3 MODULATORS” (AbbVie Inc., priority 2015, published 2018).
